Columns and labels:
hPTP1B1–400 = target: T1, hPTP1B1–400 (Homo sapiens, UniProt P18031); test: PTP1B inhibition, pNPP hydrolysis, long form; assay type: biochemical; settings: pNPP substrate, 15 min 37 °C, pH 6.8; ± S.D
T1 construct: h PTP1B 1–400 IC 50 (μM ± S.D); made in house
T1 sequence (P18031 1-400): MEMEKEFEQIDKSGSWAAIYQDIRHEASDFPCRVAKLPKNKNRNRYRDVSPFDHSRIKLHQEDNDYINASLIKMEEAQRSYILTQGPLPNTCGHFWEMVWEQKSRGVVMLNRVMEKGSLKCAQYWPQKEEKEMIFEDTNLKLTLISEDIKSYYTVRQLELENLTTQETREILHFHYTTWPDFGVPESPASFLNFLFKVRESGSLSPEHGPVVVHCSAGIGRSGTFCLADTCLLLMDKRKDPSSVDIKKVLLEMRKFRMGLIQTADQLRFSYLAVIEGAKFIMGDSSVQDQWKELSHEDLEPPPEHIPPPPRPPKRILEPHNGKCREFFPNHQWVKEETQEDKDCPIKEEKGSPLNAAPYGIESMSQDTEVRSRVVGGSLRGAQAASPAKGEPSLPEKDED
Description: The inhibitory activity of PTP1B was assessed using the long form of the PTP1B enzyme (hPTP1B1–400). This enzyme comprises a highly conserved N-terminal catalytic domain, known as the PTP domain (PTP1B1–300), in addition to an intrinsically disordered regulatory domain (PTP1B301–400).
The IC50 values obtained from these tests are detailed in Table .
Aliquots of 0–10 μL of the test compounds (triplicate) were taken and incubated for 15 min at 37 °C with 85 μL of Tris buffer solution (50 mM, pH 6.8) containing PTP1B enzyme and 5 μL of p-nitrophenyl phosphate substrate (pNPP, 10 mM). The absorbance of the hydrolysis product, p-nitrophenol (pNP), was measured at 405 nm using a 96-microplate absorbance reader (Accuris SmartReader 96). The inhibitory activity was determined according to eq . %enzyme=(A405b/A405c)×100 1 Where: % enzyme is the percentage of inhibition for PTP1B or TCPTP
The IC50 was calculated using regression analysis, eq : %inhibition=A100/1+(I/IC50)^s 2 Where: A100: Maximum inhibition

[1] = system: STZ-induced diabetic rats; settings: earlier study of the group; cited from earlier work
HepG2 cells = test: Western blotting, HepG2 normal model; assay type: cell-based, human; settings: 24 h
Description: (§1) HepG2 cells were obtained directly from ATCC (HB-8065) and cultured in DMEM with low glucose, supplemented with fetal bovine serum, 100 U/mL penicillin G, and […] streptomycin. The media was freshly prepared and sterilized by filtration. Cells were maintained with a maximum of 10 passages before being discarded. For cell counting, the cells were washed twice with phosphate-buffered saline (PBS), trypsinized, and counted using a Neubauer chamber. For the insulin-resistant model, 75,000 cells per well were seeded in 6-well plates at 37 °C in 5% CO2 and cultured for 72 h. Subsequently, insulin (0.1 μM) was added to induce insulin resistance for 24 h. After this period, inhibitors were incubated for 24 h, followed by a final 30 min insulin stimulation (0.1 μM) before protein extraction. For the normal model, 75,000 cells per well were seeded in 6-well plates at 37 °C in 5% CO2 and cultured for 96 h. After that, the cells were incubated with the inhibitors for 24 h, followed by protein extraction.
(§2) Treated cells were washed twice with 1 mL of PBS, and proteins were extracted using 300 μL of a buffer solution containing 10% sodium deoxycholate in 10% TEAB, supplemented with a protease and phosphatase inhibitor cocktail. The extracts were heated at 80 °C for 5 min and dissociated by repeated passages through an insulin syringe. The cell extracts were centrifuged at 15,000 rpm for 15 min at 4 °C, and the supernatant was collected. Protein quantification was performed using the bicinchoninic acid assay, and aliquots were prepared for Western blotting. SDS-PAGE was conducted, and proteins were transferred onto a nitrocellulose membrane. The membrane was blocked with 10% skim milk in TBST for 1 h and incubated overnight with primary antibodies (1:400 dilution). Secondary antibodies conjugated to horseradish peroxidase were diluted 1:2,000, and the membranes were incubated for 1 h at room temperature. Blots were visualized using the ChemiDoc MP (Bio-Rad), and densitometric analysis was performed with ImageJ (U.S. National Institutes of Health). Statistical analyses were conducted using GraphPad Prism 8.0.
compounds at 24 h of treatment. β-actin was employed as loading control. b) Densitometric analysis of western blot images
employing ImageJ analysis software. Bar graphs represent the mean ± SEM of normalized values. The control levels were set to
1. Asterisks indicate statistical significance according to the Dunn test. p* < 0.05
(§3) (1 picture or pasted object on this page, not shown here)

[2] = system: insulin-resistant HepG2 cells; test: Western blotting, insulin-resistant HepG2 model; assay type: cell-based, human; settings: 24 h
Description: as §1, §2
resistance model in HepG2 cells . a) Western blotting representative analysis (n=3) of PTP1B, p -AKT, p-IRS1 and p-STAT3 levels
of HepG2 cells treated with the compounds at 24 h of treatment. β-actin was employed as loading control. b) Densitometric
analysis of western blot images employing ImageJ analysis software. Bar graphs represent the mean ± SEM of normalized values.
The control levels were set to 1. Asterisks indicate statistical significance according to the Dunn test. p* < 0.05.
as §3

normoglycemic CD1 mice = test: Oral glucose tolerance test (OGTT); assay type: in vivo; settings: 45 mg/kg, glucose 2 g/kg
Description: The studies were carried out on compounds 4b, 4g, and 5g using both normoglycemic CD1 mice and a mouse model of noninsulin-dependent diabetes mellitus (NIDDM). An oral glucose tolerance test (OGTT) was conducted on the normoglycemic mice to evaluate the hypoglycemic activity of the compounds, while an insulin tolerance test (ITT) was performed on hyperglycemic CD1 mice to assess the compounds’ capacity to enhance insulin sensitivity in streptozotocin-induced diabetic mice. Pioglitazone and GA were included as positive controls.
Healthy six-week-old male CD-1 mice, weighing between 30 and 40 g, were maintained at a temperature of 25 ± 2 °C, under a 12-h light/dark cycle and 45–65% humidity throughout the experimental period. The mice were provided with a rodent pelleted diet (Harlan Laboratories, Indianapolis, USA) and had access to water ad libitum. Sixteen hours before the experiment, all mice were fasted but still had free access to water. All animal procedures were conducted in accordance with the Mexican Federal Regulations for Animal Experimentation and Care (SAGARPA, NOM-062-ZOO-1999, Mexico) and received approval from the Institutional Animal Care and Use Committee, following guidelines outlined in the US National Institutes of Health publication (No. 85–23, revised 1985).
Animals were categorized into five groups, each consisting of four mice (n = 4). The experimental groups received an oral suspension of compounds 4b, 4g, and 5g, prepared in a 10% Tween 20/water solution, at a dosage of 50 mg/kg body weight. A control group was treated with only the 10% Tween 20 solution. The final group was administered pioglitazone at a dose of 45 mg/kg, which is recognized as a reference drug for insulin sensitization. To evaluate glucose levels, blood samples were collected from the tails of the mice at 0, 30, 60, 90, and 120 min after the administration of the vehicle, test compound, or drug. Blood glucose concentration was measured using a commercial glucometer (Accu-Chek, Performa; Roche) and the enzymatic glucose dehydrogenase method. The percentage variation in glycemia was calculated by comparing the selected postadministration glycemia (G x ) with the initial value (G0) using the following formula: %variationofglycemia=[(Gx−G0)/G0]×100 where G0 represents the initial glycemia values and Gx indicates the glycemia values at +30, + 60, + 90, and +120 min, respectively.
To determine the hypoglycemic effect of the compounds on nondiabetic animals, the compounds 4b, 4g, and 5g were administered intragastrically. Pioglitazone was used as a positive control. After 30 min, five mice/group (CD-1) were subjected to OGTT. The test was performed using glucose (2 g/kg) as substrate.

[3] = system: STZ-induced diabetic CD-1 mice; test: Insulin tolerance test (ITT); assay type: in vivo; settings: 45 mg/kg, insulin 0.75 IU after 30 min
Description: The studies were carried out on compounds 4b, 4g, and 5g using both normoglycemic CD1 mice and a mouse model of noninsulin-dependent diabetes mellitus (NIDDM). An oral glucose tolerance test (OGTT) was conducted on the normoglycemic mice to evaluate the hypoglycemic activity of the compounds, while an insulin tolerance test (ITT) was performed on hyperglycemic CD1 mice to assess the compounds' capacity to enhance insulin sensitivity in streptozotocin-induced diabetic mice. Pioglitazone and GA were included as positive controls. […] Healthy six-week-old male CD-1 mice, weighing between 30 and 40 g, were maintained at a temperature of 25 ± 2 °C, under a 12-h light/dark cycle and 45-65% humidity throughout the experimental period. The mice were provided with a rodent pelleted diet (Harlan Laboratories, Indianapolis, USA) and had access to water ad libitum. Sixteen hours before the experiment, all mice were fasted but still had free access to water. All animal procedures were conducted in accordance with the Mexican Federal Regulations for Animal Experimentation and Care (SAGARPA, NOM-062-ZOO-1999, Mexico) and received approval from the Institutional Animal Care and Use Committee, following guidelines outlined in the US National Institutes of Health publication (No. 85-23, revised 1985). Streptozotocin (STZ) was dissolved in citrate buffer (pH 4.5), while nicotinamide was dissolved in a normal physiological saline solution. The noninsulin-dependent diabetes (NIDD) mouse model was induced in overnight-fasted mice through a single intraperitoneal injection of STZ (100 mg/kg). Nicotinamide was administered 15 min prior, at a dose of 20 mg/kg via intraperitoneal injection. […] Roche). […] Animals were categorized into five groups, each consisting of four mice (n = 4). The experimental groups received an oral suspension of compounds 4b, 4g, and 5g, prepared in a 10% Tween 20/water solution, at a dosage of 50 mg/kg body weight. A control group was treated with only the 10% Tween 20 solution. The final group was administered pioglitazone at a dose of 45 mg/kg, which is recognized as a reference drug for insulin sensitization. To evaluate glucose levels, blood samples were collected from the tails of the mice at 0, 30, 60, 90, and 120 min after the administration of the vehicle, test compound, or drug. Blood glucose concentration was measured using a commercial glucometer (Accu-Chek, Performa; Roche) and the enzymatic glucose dehydrogenase method. The percentage variation in glycemia was calculated by comparing the selected postadministration glycemia (G x ) with the initial value (G0) using the following formula: %[…]=[(Gx-G0)/G0]×100 where G0 represents the initial glycemia values and Gx indicates the glycemia values at +30, + 60, + 90, and +120 min, respectively. To evaluate the ability of GA derivatives to enhance insulin sensitivity in STZ-induced diabetic CD-1 mice, compounds 4b, 4g, and 5g were tested. Glycyrrhetinic acid (GA) and Pioglitazone served as positive controls. The GA derivatives and the positive controls were administered to the diabetic animals, followed by the administration of human rapid-acting insulin (0.75 IU) after 30 min. Subsequently, glucose levels were measured every 15 min.

SMILES: Cc1ccc(-n2ncc3c2C(C)(C)[C@@H]2CC[C@]4(C)[C@H](C(=O)C=C5[C@@H]6C[C@@](C)(C(=O)O)CC[C@]6(C)CC[C@]54C)[C@@]2(C)C3)cc1 [FC-122, reference compound]
- IC50 (hPTP1B1–400): 2140 ± 150 nM
- antihyperglycemic effects [1]: superior antihyperglycemic effects compared to glibenclamide and acarbose, but did not outperform pioglitazone

SMILES: CN(C)C(=N)N=C(N)N [Metformin]
- AKT phosphorylation (p-AKT) levels (HepG2 cells): notable increase
- PTP1B levels (HepG2 cells): neither metformin, ursolic acid, nor the GA derivatives significantly reduced PTP1B levels
- AKT phosphorylation (p-AKT) levels [2]: notable increase
- PTP1B levels [2]: neither metformin, ursolic acid, nor the GA derivatives significantly reduced PTP1B levels

SMILES: CCc1ccc(CCOc2ccc(CC3SC(=O)NC3=O)cc2)nc1 (centres unmarked) [Pioglitazone, reference compound]
- hypoglycemic effect in OGTT (normoglycemic CD1 mice): the most significant reduction in the hyperglycemic peak
- glycemia variation in ITT [3]: markedly decrease glycemia variation

From publication PMC12921516 (ACS Bio & Med Chem Au, 2025)
